Measured values reported in the supplement of paper PMC10307832.

Legend:
Assay in all cases: relative viability (nuclei count vs DMSO), 5 days (fraction); higher = more cells survive
BI-D1870 + OSI-027 = compound: CC(C)CCN1c2nc(Nc3cc(F)c(O)c(F)c3)ncc2N(C)C(=O)C1C [BI-D1870] + COc1cccc2cc(-c3nc([C@H]4CC[C@H](C(=O)O)CC4)n4ncnc(N)c34)[nH]c12 [OSI-027] (partner 0.5 µM)
Method in brief: (§1)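 Cells from lung cancer lines were seeded into 1536-well plates and, one day later, dosed by pin tool. Treatments were either a single drug or a fixed dose of an anchor drug with five library-drug doses (not always all listed) in √10 steps. After 5 days, nuclei were stained in a one-step fixation (final 0.05% Triton X-100, 1% formaldehyde, 1 ug/ml Hoechst) and counted on 4× images, and relative viability is the treated-to-vehicle nuclei ratio, as the median of duplicate plates.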

Zebularine + Lapatinib = compound: O=c1ncccn1[C@@H]1O[C@H](CO)[C@@H](O)[C@H]1O [Zebularine] + CS(=O)(=O)CCNCc1ccc(-c2ccc3ncnc(Nc4ccc(OCc5cccc(F)c5)c(Cl)c4)c3c2)o1 [Lapatinib] (partner 2 µM)
Method in brief: as §1

Zebularine + Dasatinib = compound: O=c1ncccn1[C@@H]1O[C@H](CO)[C@@H](O)[C@H]1O [Zebularine] + Cc1nc(Nc2ncc(C(=O)Nc3c(C)cccc3Cl)s2)cc(N2CCN(CCO)CC2)n1 [Dasatinib] (partner 0.075 µM)
Method in brief: as §1

BI-D1870 + Pictilisib = compound: CC(C)CCN1c2nc(Nc3cc(F)c(O)c(F)c3)ncc2N(C)C(=O)C1C [BI-D1870] + CS(=O)(=O)N1CCN(Cc2cc3nc(-c4cccc5[nH]ncc45)nc(N4CCOCC4)c3s2)CC1 [Pictilisib] (partner 1 µM)
Method in brief: as §1

Row | Cell Line | relative viability (BI-D1870 + OSI-027; first compound 0.04 µM) | relative viability (BI-D1870 + OSI-027; first compound 0.1265 µM) | relative viability (BI-D1870 + OSI-027; first compound 0.4 µM) | relative viability (BI-D1870 + OSI-027; first compound 1.265 µM) | relative viability (BI-D1870 + OSI-027; first compound 4 µM) | relative viability (Zebularine + Lapatinib; first compound 1 µM) | relative viability (Zebularine + Lapatinib; first compound 3.162 µM) | relative viability (Zebularine + Lapatinib; first compound 10 µM) | relative viability (Zebularine + Lapatinib; first compound 31.62 µM) | relative viability (Zebularine + Lapatinib; first compound 100 µM) | relative viability (Zebularine + Dasatinib; first compound 1 µM) | relative viability (Zebularine + Dasatinib; first compound 3.162 µM) | relative viability (Zebularine + Dasatinib; first compound 10 µM) | relative viability (Zebularine + Dasatinib; first compound 31.62 µM) | relative viability (Zebularine + Dasatinib; first compound 100 µM) | relative viability (BI-D1870 + Pictilisib; first compound 0.04 µM) | relative viability (BI-D1870 + Pictilisib; first compound 0.1265 µM) | relative viability (BI-D1870 + Pictilisib; first compound 0.4 µM) | relative viability (BI-D1870 + Pictilisib; first compound 1.265 µM) | relative viability (BI-D1870 + Pictilisib; first compound 4 µM)
1 | NCI-H596 | 0.797 | 0.704 | 0.95 | 0.572 | 0.5 | 1.19 | 1.11 | 0.759 | 1.18 | 1 | 0.606 | 0.648 | 0.461 | 0.694 | 0.565 | 0.388 | 0.402 | 0.385 | 0.428 | 0.393
2 | H3255 | 0.627 | 0.51 | 0.548 | 0.682 | 0.539 | 0.249 | 0.239 | 0.221 | 0.235 | 0.228 | 0.402 | 0.365 | 0.324 | 0.409 | 0.368 | 0.505 | 0.458 | 0.451 | 0.584 | 0.497
3 | NCI-H647 | 0.657 | 0.519 | 0.664 | 0.855 | 0.53 | 1.35 | 1.03 | 0.227 | 0.212 | 0.14 | 0.202 | 0.208 | 0.129 | 0.101 | 0.109 | 0.497 | 0.387 | 0.444 | 0.512 | 0.34
4 | NCI-H2023 | 0.456 | 0.298 | 0.323 | 0.319 | 0.223 | 1.03 | 0.686 | 0.786 | 0.717 | 0.292 | 0.636 | 0.572 | 0.423 | 0.392 | 0.213 | 0.271 | 0.199 | 0.221 | 0.235 | 0.153
5 | NCI-H23 | 0.782 | 0.525 | 0.463 | 0.547 | 0.344 | 1.15 | 1.12 |  | 1.21 | 0.756 | 0.83 | 0.876 | 0.497 | 0.774 | 0.791 | 0.625 | 0.445 | 0.433 | 0.421 | 0.26
6 | NCI-H1944 | 0.514 | 0.376 | 0.366 | 0.475 | 0.426 | 0.975 | 0.864 | 0.613 | 0.932 | 0.757 | 0.202 | 0.199 | 0.221 | 0.215 | 0.193 | 0.395 | 0.294 | 0.332 | 0.377 | 0.345
7 | NCI-H1793 | 0.293 | 0.216 | 0.22 | 0.266 | 0.224 | 0.826 | 0.882 | 0.339 | 0.648 | 0.304 | 0.479 | 0.373 |  | 0.25 | 0.176 | 0.295 | 0.308 | 0.227 | 0.347 | 0.288
8 | NCI-H520 | 0.226 | 0.205 | 0.252 | 0.291 | 0.2 | 1.14 | 0.863 | 0.477 | 0.277 | 0.256 | 0.195 | 0.175 | 0.14 | 0.172 | 0.164 | 0.317 | 0.275 | 0.348 | 0.36 | 0.233
9 | NCI-H460 | 0.825 | 0.504 | 0.43 | 0.442 | 0.185 | 1.05 | 0.897 | 0.255 | 0.294 | 0.0468 | 0.725 | 0.527 | 0.326 | 0.304 | 0.0827 | 0.437 | 0.364 | 0.31 | 0.391 | 0.33
10 | EKVX | 0.68 | 0.608 | 0.64 | 0.776 | 0.641 | 0.218 | 0.182 |  | 0.211 | 0.184 | 0.577 | 0.498 |  | 0.575 | 0.573 | 0.488 | 0.388 | 0.412 | 0.453 | 0.403
11 | NCI-H358 | 0.825 | 0.65 | 0.687 | 0.728 | 0.344 | 0.48 | 0.401 | 0.44 | 0.467 | 0.303 | 0.169 | 0.134 | 0.194 | 0.174 | 0.105 | 0.38 | 0.233 | 0.338 | 0.365 | 0.322
12 | EPLC-272H | 0.263 | 0.218 | 0.272 | 0.278 | 0.204 | 0.935 |  |  | 0.992 | 0.598 | 0.405 | 0.356 | 0.255 | 0.34 | 0.28 | 0.364 | 0.295 | 0.275 | 0.312 | 0.243
13 | NCI-H1563 | 0.79 | 0.814 | 0.673 | 0.801 | 0.709 | 1 | 0.782 | 0.907 | 1.13 | 0.946 | 0.498 | 0.528 | 0.527 | 0.406 | 0.466 | 0.674 | 0.617 | 0.604 | 0.693 | 0.681
14 | NCI-H1395 | 0.717 | 0.639 | 0.658 | 0.616 | 0.593 | 1.27 | 1.04 | 0.799 | 0.702 | 0.507 | 0.443 | 0.37 | 0.408 | 0.341 | 0.36 | 0.684 | 0.588 | 0.587 | 0.673 | 0.507
15 | NCI-H2126 | 0.74 | 0.64 | 0.671 | 0.716 | 0.58 | 0.843 | 0.774 | 0.695 | 0.76 | 0.619 | 0.813 | 0.538 | 0.612 | 0.569 | 0.488 | 0.556 | 0.491 | 0.45 | 0.461 | 0.386
16 | LXF-289 | 0.796 | 0.74 | 0.746 | 0.807 | 0.776 | 0.986 | 0.92 | 0.818 | 0.783 | 0.271 | 0.233 | 0.187 | 0.184 | 0.175 | 0.154 | 0.833 | 0.763 | 0.798 | 0.745 | 0.665
